# From patent EP0167385B1, “Antiviral compounds, treatment and formulations” (THE WELLCOME FOUNDATION LIMITED, priority 1984, dated 1986)
# Where two headings read alike, the source gives them in different places.
# Columns and labels:
# [1] = urine levels after oral administration, mice; type: in vivo; settings: compared with oral administration of the compound of formula (I) itself
# [2] = toxicity in mice after administration by gavage; type: in vivo; settings: 44.5 mg per kg by gavage, suspension in 5% Tween 80, 28 male CD-1 mice
# Method: The compound of formula (II) was administered to 28 male CD-1 mice by gavage. The dose was 44.5 mg per kg of body weight and was in suspension in 5% Tween 80 at a concentration of 5 mg/ml.
# [3] = urine levels after oral administration, rats; type: in vivo; settings: compared with oral administration of the compound of formula (I) itself
# [4] = test system: HSV-1; settings: concentrations up to 100 ug; Ogilvy et al, Nucleosides and Nucleotides (1983); cited from earlier work
# [5] = test system: Epstein-Barr Virus (EBV); test: EBV-specific cRNA-DNA hybridization, EBV genome equivalents in P3HR-1 cells; type: cell-based
# Method: 1-[2-Hydroxy-1-(hydroxymethyl)ethoxymethyl]cytosine was assayed for activity against Epstein-Barr Virus (EBV) using an adaptaion of the procedure described in Nature New Biology, 233, 103-106 (1971). This technique, employing an EBV-specific cRNA-DNA hybridization on filter membranes, detects the amount of EBV genome equivalents produced in the virus-producing cell lines. In this assay the EBV-producing cell line […]-1 (ATCC HTB 62) was exposed to various concentrations of 1-[2-hydroxy-1-(hydroxymethyl)-ethoxymethyl]cytosine for 14 days and EBV genome equivalents per cell were then determined to give an ED50 of approximately 0.05 μM.
# [6] = test system: VZV; test: antiviral test against VZV; settings: antiviral tests, general statement
# [7] = test system: human CMV; test: plaque reduction assay in human foreskin fibroblast monolayers; type: cell-based; settings: for EC50: Human betaherpesvirus 5, Fibroblast, 192 h, Human Foreskin Fibroblasts, 8 days, read-out: ED₅₀
# Method: Confluent monolayers of human diploid fibroblast cells (i.e., human foreskin fibroblast cells) were infected with 200-300 µL of a suspension containing 50-100 human CMV infectious virions per culture well and allowed to incubate for 90 minutes at 37 degrees C in a CO₂ incubator. Unadsorbed virus was then removed by aspiration and appropriate concentrations of 1-[2-hydroxy-1-(hydroxymethyl)ethoxymethyl] cytosine were added in Eagle's Minimal Essential Media containing 2% fetal calf serum in an agarose overlay (0.6%). The assay plates were incubated at 37 degrees C in a CO₂ incubator for 8 days to allow plaque development. The monolayers were then fixed with 10% formalin in phosphate buffered saline and stained wth 0.8% crystal violet. The plaques were counted at 3x magnification using a Bausch and Lomb dissecting microscope, and the data were analysed by SAS Probit (SAS Institute, Inc., Cary, N.C., U.S.A.) to give the following results: […]
# [8] = antiviral tests, general statement
"EC50 ([5]; human gammaherpesvirus 4, 336 h, P3HR-1 (ATCC HTB 62) cells exposed for 14 days, read-out: ED₅₀ (EBV genome equivalents per cell)) [nM]",Compound,"body fluid levels of the compound of formula (I), as demonstrated by urine levels [1]",signs of toxicity [2],"body fluid levels of the compound of formula (I), as demonstrated by urine levels [3]",activity against HSV-1 [4],"activity against EBV [5, 8]",activity against VZV [6],EC50 ([7]; Virus Strain ATCC VR-538 (strain AD169)) [nM],EC50 ([7]; Virus Strain Kerr) [nM],"activity against CMV [7, 8]"
,"CC(C)(C)C(=O)OCC(COC(=O)C(C)(C)C)OCn1ccc(N)nc1=O [compound of formula (II), 2-[(4-Amino-1,2-dihydro-2-oxo-1-pyrimidinyl)methoxy]-1,3-propanediyl Dipivalate]",substantially higher,No signs of toxicity were observed,substantially higher,,,,,,
~50,Nc1ccn(COC(CO)CO)c(=O)n1 [1-[2-Hydroxy-1-(hydroxymethyl)ethoxymethyl]cytosine],,,,no activity,surprisingly good activity,surprisingly good activity,3700 ± 700,1900 ± 200,surprisingly good activity
